Assay results taken from patent publication US20230405003A1, “APPLICATION OF THYMIDINE DERIVATIVE IN PREPARATION OF DRUGS” (ONQUALITY PHARMACEUTICALS CHINA LTD., priority 2020, published 2023).
Like-named read-outs stand apart in the source and are kept apart here.

Legend:
[1] = tested on: HaCaT cells; test: Relief of 5-FU proliferative toxicity to HaCaT cells (CCK-8 cell survival); format: cell-based; details: for activation at 10 µM: compound 10 μM; for activation at 100 µM: compound 100 μM; for activation at 500 µM: compound 500 μM; for activation at 1000 µM: compound 1000 μM; for activation at 1 µM: compound 1 μM; for Cell Survival Rate (increased percentage of cell survival compared with the Group of 5-FU): 5-Fu 20 μM, HaCaT cells
How it was run: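 HaCaT keratinocytes (5000–10000/well) cultured 24 h, then exposed 48 h to 5-FU alone or with thymidine derivative, or thymidine plus uridine derivative mix, versus solvent-matched blanks. Survival by CCK-8; value is % increase in survival over 5-FU alone, t-test.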

[2] = tested on: hand-foot syndrome caused by capecitabine in SD rats; test: Rat model of hand-foot syndrome caused by capecitabine, gel application; format: in vivo; details: capecitabine 4000 mg/kg once daily, 40 days; for inhibition in vivo at 3 % / inhibition in vivo at 0.1 % / inhibition in vivo at 0.5 % / inhibition in vivo at 1 % / inhibition in vivo at 5 %: Rattus norvegicus, topical, 960 h; for inhibition in vivo at 3 % / inhibition in vivo at 0.1 % / inhibition in vivo at 0.5 % / inhibition in vivo at 1 % / inhibition in vivo at 5 % / Control Rate Forepaws / Control Rate Hindpaws: rats; for Control Rate: SD rats
Protocol: A rat animal model was established. 6-week aged female SD rats were administered with capecitabine by daily gavage. The degree of hand-foot syndrome in paws is similar, and there was no difference between the left and right paws. Similar to the human body, rats developed hand-foot syndrome after oral administration of capecitabine. The causes of the two are the same, and the disorder is also very similar. Therefore, rats are very good animal models for simulating the hand-foot syndrome caused by capecitabine.
After SD rats were fed and adapted for one week (about 200 g), the rats were divided into groups, with 10 rats in each group. Then, the rats were subject to gavage administration. Capecitabine was dissolved in a 1:1 mixed solution of castor oil and ethanol and diluted for three times with PBS buffer. After gavage, the rats were fixed with a fixed cylinder, and a gel of thymidine derivative (or a compounded gel of thymidine derivative and uridine derivative) was applied to double hind paws (about 1 cm*3 cm) of the rats in group of administration (the types and concentrations are shown in Table 4), and a blank gel was applied to the group of blank (as a blank control). After approximately 4 hours of application, the rats were released after 4 hours, wiped with clean water to remove any residual drug at the application site, and allowed back to the cage. The thymidine derivative gel (or the compounded gel of thymidine derivative and uridine derivative) was administered with gavage every day. The gavage and application tests are repeated daily until the group of blank has developed obvious hand-foot syndrome.
Table 4 lists the combinations of animal experiments of capecitabine and the thymidine derivative gel (or the compounded gel of thymidine derivative and uridine derivative) and the corresponding experimental results (wherein, the data in the column of control rate=the occurrence rate of hand-foot syndrome in group of blank—the occurrence rate of hand-foot syndrome in group of administration). […]

[3] = tested on: pain in capecitabine hand-foot syndrome rats; test: Pain of hand-foot syndrome, mechanical sensitivity in rats (von Frey); format: in vivo, rat; details: capecitabine 4000 mg/kg hand-foot syndrome rats; thymidine derivative 3%
Protocol: According to the method of Examples 91-115, after administration of a thymidine derivative (at a concentration of 3%) and co-administration of a thymidine derivative (at a concentration of 1%) with a uridine derivative (at a concentration of 3%) to rat hand-foot syndrome models constructed from 4000 mg/kg of capecitabine for a period of time, pain analysis was performed on the rats, and the pain assessment model was mechanical sensitivity in rats (von Frey). The experimental steps were as follows: first, the rats were allowed to adapt in the room for 1 hour, then the rats were placed in an observation box with a metal mesh floor, and the mice were allowed to stay in the box for 20 minutes to adapt to the experimental platform. Next, a von Frey device was used to detect paw pain by stimulating the surface of the rat's palm with specially designed cilia to detect the mechanical sensitivity of the animal at strength of 0.4 g, 0.8 g, 1.5 g, 2.5 g, 4 g, 8 g, 10 g and 20 g (IITC Life Science, Woodland Hills, 2390 series). […] The rat movement response was considered to be a vague response, in which case the stimulation experiment was repeated.

[4] = Homo sapiens, HaCaT, increase vs Group of 5-FU, 5-FU 20 μM, 48 h, read-out: Cell Survival Rate
[5] = gel 3 wt%, read-out: Control Rate Forepaws
[6] = gel 3 wt%, read-out: Control Rate Hindpaws
[7] = selected compound final concentration 1.6 μM
[8] = selected compound final concentration 3.13 μM
[9] = selected compound final concentration 6.25 μM
[10] = selected compound final concentration 12.5 μM
[11] = selected compound final concentration 25 μM
[12] = selected compound final concentration 50 μM

Compound | activation at 10 µM [1, 4] [%] | activation at 100 µM [1, 4] [%] | activation at 500 µM [1, 4] [%] | activation at 1000 µM [1, 4] [%] | inhibition in vivo at 3 % [2, 5] [%] | inhibition in vivo at 3 % [2, 6] [%] | pain in rats (von Frey mechanical sensitivity) [3] | Cell Survival Rate (increased percentage of cell survival compared with the Group of 5-FU) [1, 8] | Cell Survival Rate (increased percentage of cell survival compared with the Group of 5-FU) [1, 9] | Cell Survival Rate (increased percentage of cell survival compared with the Group of 5-FU) [1, 10] | Cell Survival Rate (increased percentage of cell survival compared with the Group of 5-FU) [1, 11] | Cell Survival Rate (increased percentage of cell survival compared with the Group of 5-FU) [1, 12] | other results
CC(=O)OCC1OC(n2cc(C)c(=O)[nH]c2=O)CC1OC(C)=O (centres unmarked) [T1] | 10 to 16 | 31 to 37 | 36 to 41 | 35 to 42 | 57.1 | 71.4 | did not significantly improve pain in rats |  |  |  |  |  | activation at 5 µM ([1]; Homo sapiens, HaCaT, increase vs Group of 5-FU, 5-FU 20 μM, compound 5 μM, 48 h, read-out: Cell Survival Rate): 1 to 6%; activation at 50 µM ([1]; Homo sapiens, HaCaT, increase vs Group of 5-FU, 5-FU 20 μM, compound 50 μM, 48 h, read-out: Cell Survival Rate): 21 to 26%; activation at 200 µM ([1]; Homo sapiens, HaCaT, increase vs Group of 5-FU, 5-FU 20 μM, compound 200 μM, 48 h, read-out: Cell Survival Rate): 42 to 48%; activation at 1500 µM ([1]; Homo sapiens, HaCaT, increase vs Group of 5-FU, 5-FU 20 μM, compound 1500 μM, 48 h, read-out: Cell Survival Rate): 29 to 33%; activation at 3000 µM ([1]; Homo sapiens, HaCaT, increase vs Group of 5-FU, 5-FU 20 μM, compound 3000 μM, 48 h, read-out: Cell Survival Rate): 17 to 23%; Control Rate ([2]; gel 0.5 wt% on hind paws): 20.00%; Control Rate ([2]; gel 2 wt% on hind paws): 27.50%; Control Rate ([2]; gel 5 wt% on hind paws): 56.67%
CC(=O)O[C@H]1C[C@H](n2cc(C)c(=O)[nH]c2=O)O[C@@H]1CO [T2] | 35 to 45 | 70 to 80 | 75 to 85 | 60 to 70 |  |  |  |  |  |  |  |  | activation at 1 µM [1, 4]: 14 to 18%; Control Rate ([2]; gel 1 wt% on hind paws): 23.33%
CC(=O)OC[C@H]1O[C@@H](n2cc(C)c(=O)[nH]c2=O)C[C@@H]1O [T3] | 30 to 38 | 80 to 86 | 69 to 75 | 58 to 65 |  |  |  |  |  |  |  |  | activation at 1 µM [1, 4]: 13 to 18%; Control Rate ([2]; gel 1 wt% on hind paws): 27.50%
COc1ccc2cc([C@H](C)C(=O)OC[C@H]3O[C@@H](n4cc(C)c(=O)[nH]c4=O)C[C@@H]3O)ccc2c1 [T25] |  |  |  |  | 62.5 | 75 | could significantly improve pain in rats |  |  |  |  |  | inhibition in vivo at 0.1 % ([2]; gel 0.10 wt%, read-out: Control Rate Forepaws): 22.2%; inhibition in vivo at 0.1 % ([2]; gel 0.10 wt%, read-out: Control Rate Hindpaws): 33.3%; inhibition in vivo at 0.5 % ([2]; gel 0.50 wt%, read-out: Control Rate Forepaws): 22.2%; inhibition in vivo at 0.5 % ([2]; gel 0.50 wt%, read-out: Control Rate Hindpaws): 44.4%; inhibition in vivo at 1 % ([2]; gel 1 wt%, read-out: Control Rate Forepaws): 37.5%; inhibition in vivo at 1 % ([2]; gel 1 wt%, read-out: Control Rate Hindpaws): 50%; inhibition in vivo at 5 % ([2]; gel 5 wt%, read-out: Control Rate Forepaws): 57.1%; inhibition in vivo at 5 % ([2]; gel 5 wt%, read-out: Control Rate Hindpaws): 71.4%
Cc1cn([C@H]2C[C@H](O)[C@@H](COC(=O)C(C)c3cccc(Oc4ccccc4)c3)O2)c(=O)[nH]c1=O (stereo partly drawn) [T27, ((2R,3S, 5R)-3-hydroxyl-5-(5-methyl-2,4-dioxy-3,4-dihydropyrimidin-1(2H)-yl)tetrahydrofuran-2-yl)2-(3-phenoxyphenyl)propionate Methyl] |  |  |  |  |  |  | could significantly improve pain in rats | 51%-58% | 54%-61% | 51%-59% | 49%-57% | 46%-53% | Cell Survival Rate (increased percentage of cell survival compared with the Group of 5-FU) [1, 7]: 39%-45%; Control Rate Forepaws ([2]; gel 0.10 wt%): 22.22%; Control Rate Hindpaws ([2]; gel 0.10 wt%): 44.44%; Control Rate Forepaws ([2]; gel 0.50 wt%): 33.33%; Control Rate Hindpaws ([2]; gel 0.50 wt%): 33.33%; Control Rate Forepaws ([2]; gel 1 wt%): 25%; Control Rate Hindpaws ([2]; gel 1 wt%): 50%; Control Rate Forepaws ([2]; gel 3 wt%): 57.14%; Control Rate Hindpaws ([2]; gel 3 wt%): 71.43%; Control Rate Forepaws ([2]; gel 5 wt%): 50%; Control Rate Hindpaws ([2]; gel 5 wt%): 75.00%
Cc1cn([C@H]2C[C@H](O)[C@@H](COC(=O)[C@H](C)c3ccc(CC(C)C)cc3)O2)c(=O)[nH]c1=O [T32] |  |  |  |  | 37.5 | 62.5 | could significantly improve pain in rats | 35%-41% | 29%-36% | 46%-52% | 53%-60% | 59%-66% | Cell Survival Rate (increased percentage of cell survival compared with the Group of 5-FU) ([1]; selected compound final concentration 100 μM): 78%-85%
Cc1ccc(C(=O)c2ccc(CC(=O)OC[C@H]3O[C@@H](n4cc(C)c(=O)[nH]c4=O)C[C@@H]3O)n2C)cc1 [T36] |  |  |  |  |  |  | could significantly improve pain in rats | 27%-35% | 38%-46% | 52%-60% | 53%-61% | 49%-57% | Control Rate Forepaws ([2]; gel 1 wt%): 28.57%; Control Rate Hindpaws ([2]; gel 1 wt%): 42.86%; Control Rate Forepaws ([2]; gel 3 wt%): 44.44%; Control Rate Hindpaws ([2]; gel 3 wt%): 44.44%
CC1=C(CC(=O)OC[C@H]2O[C@@H](n3cc(C)c(=O)[nH]c3=O)C[C@@H]2O)c2cc(F)ccc2/C1=C\c1ccc([S+](C)[O-])cc1 (some centres unmarked) [T40] |  |  |  |  | 44.4 | 66.7 |  | 45%-52% | 47%-56% | 49%-54% | 58%-65% | 48%-55% | Cell Survival Rate (increased percentage of cell survival compared with the Group of 5-FU) ([1]; selected compound final concentration 0.8 μM): 42%-50%; Cell Survival Rate (increased percentage of cell survival compared with the Group of 5-FU) [1, 7]: 57%-65%
